# Where a SMILES comes first, the peptide text is derived from it. Bridges are numbered along the chain shown (N, C = ends). [ ]: non-standard residue; d: D form. The star is where a group is joined. Myristoyl = CCCCCCCCCCCCCC(=O)*; S5 = C=CCCC[C@](C)(N)C(=O)O
# Key:
# UNC119a = target: T1, UNC119a (Homo sapiens, UniProt Q13432); experiment: Fluorescence anisotropy binding assay, UNC119a; conditions: 5 nM fluorescein-labeled peptide, 4 h at room temperature, 30 mM Tris pH 7.5, 100 mM NaCl, 1 mM TCEP, 0.01% Chaps, triplicate, error 1 σ
# T1 construct: made in house; host or cells: E. coli
# Protocol: (§1) Fluorescence anisotropy assay
# (§2) UNC119a/b was serially diluted in a buffer containing 30 mM Tris (pH 7.5), 100 mM NaCl, 1 mM TCEP and 0.01% Chaps (assay buffer), treated with 5 nM fluorescein-labeled peptides and incubated for 4 h at room temperature. Binding assays were performed in 384-well, small volume, black flat-bottom, non-binding plates (Greiner). Fluorescence polarization values (λex = 470 nm, λem = 525 nm) were determined using a Safire II plate reader (Tecan) at room temperature. All measurements were performed in triplicates. After correction for changes in fluorescence intensity upon binding, the fluorescence anisotropy data were converted into fraction bound (equation 1) of the FITC- labeled peptide and fitted via non-linear regression in Prism 5.0 (Graphpad).[1] fraction bound = A−Afree (1)
# (§3) Afree: anisotropy of free fluorophore
# (§4) Abound: anisotropy of bound fluorophore
# (§5) Q: change in fluorescence intensity between free and bound state
# (§6) Protein expression and purification
# (§7) UNC119a and UNC119b were expressed in E. coli according to the previously reported procedures.[2] […]
# (§8) Additionally, HeLa cells were supplemented with penicillin and streptomycin. All cultures were routinely tested and found to be free of mycoplasma contamination.
# UNC119b = target: T2, UNC119b (Homo sapiens, UniProt A6NIH7); experiment: Fluorescence anisotropy binding assay, UNC119b; conditions: 5 nM fluorescein-labeled peptide, 4 h at room temperature, 30 mM Tris pH 7.5, 100 mM NaCl, 1 mM TCEP, 0.01% Chaps, triplicate, error 1 σ
# T2 construct: made in house; host or cells: E. coli
# T2 sequence (A6NIH7 whole entry, species assumed): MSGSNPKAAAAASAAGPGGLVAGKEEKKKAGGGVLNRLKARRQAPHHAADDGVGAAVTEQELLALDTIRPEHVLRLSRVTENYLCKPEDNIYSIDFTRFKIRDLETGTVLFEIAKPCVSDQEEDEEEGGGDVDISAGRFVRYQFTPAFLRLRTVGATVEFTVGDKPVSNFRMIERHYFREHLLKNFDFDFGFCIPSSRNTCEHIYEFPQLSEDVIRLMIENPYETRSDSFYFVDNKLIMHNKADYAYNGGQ
# Protocol: as §1, §2, §3, §4, §5, §6, §7, §8
# MDA-MB-231 cells [1] = experiment: Subcellular (nucleus, cytosol) peptide concentration by quantitative UPLC-MS; format: in vitro ADME; conditions: for Peptide concentration, cytosol, 0.5 h / Peptide concentration, nucleus, 0.5 h / Peptide concentration, cytosol, 72 h / Peptide concentration, nucleus, 72 h: unlabeled peptide 25 μM, MDA-MB-231 cells, subcellular fractionation, LLOQ given if not detected; for Peptide concentration, cytosol, 0.5 h / Peptide concentration, nucleus, 0.5 h: 0.5 h incubation; for Peptide concentration, cytosol, 72 h / Peptide concentration, nucleus, 72 h: 72 h incubation
# Protocol: (§9) Total intracellular and sub cellular concentrations
# (§10) […] cells were cultured DMEM (high glucose) supplemented with 10% FCS and 1% Glutamax.
# (§11) When 80% confluency cell culture media was removed from each flask and new media containing 25 µM of peptides was added and incubated with cells for 30 min and 72 h. Following peptide incubation, cells were washed twice with PBS, trypsinized and pelleted. Pellets where lysed in RIPA buffer (Perkin Elmer) for total […]
# (§12) lysis; or CelLytic NuCLEAR Extraction Kit (SIGMA) for subcellular fractionation. Total protein quantification BCA (Pierce) was performed prior to MS analysis to normalize sample data.
# (§13) Total and sub-cellular quantities of peptides 4, 10 and R8 were quantified[3] in lysates by UPLC-MS utilising a Waters Xevo TQ-XS (WBA0259) and a Waters Acquity UPLC system consisting of, Sample Manager (M16UFL953M), Acquity PDA (F17UPD457A), Column Oven (E17CMP703G) and Binary Solvent Manager (E17BUR621G). For peptides 4 and 10 analytical UPLC separation was performed using a Waters CSH C18 1.7 µm, 2.1 x 50 mm column. A gradient was utilized of 97% A to 5% in 4mins, 0.5 min hold, 5% A to 97% in 0.5mins, where A = 0.1% HCOOH (aq) and B = 0.1% HCOOH in MeCN at a flow rate of 0.75 mL/min (Supporting Figure S7). Compound R8 was analyzed in HILIC mode using a Waters BEH Amide 1.7 µm, 2.1 x 100 mm column with a gradient of 30% A to 95% in 1.5 mins, 1 min hold, 95% A to 30% in 1.5 min, 1 min hold at 0.65 mL/min. The Waters TQ-XS was operated in +ve ion Electrospray (ESI) mode with the optimized transitions for PC658-AC, PC658-MYR and Ac-R8 (Supporting Table S3 and Figure S8). The chromatograms at each transition were extracted, smoothed and integrated to give the standard curve. Chromatograms of the samples were treated similarly and by linear regression (1/x) an in-cell concentration was established in the re-suspended cell lysate using the Waters MassLynx TargetLynxTM product (Supporting Tables S4 – S7).
# MDA-MB-231 cells [2] = experiment: Total intracellular peptide concentration by quantitative UPLC-MS; format: in vitro ADME; conditions: for Total drug content, pMols/million cells / Total drug content, Measured Conc: 25 µM compound, 0.5 h; for Total drug content, pMols/million cells: total lysis; for Total drug content, pMols/million cells / Total drug content, Measured Conc / Peptide concentration, total cell, 0.5 h: UPLC-MS; for Fold higher total cell uptake than peptide 10: 25 μM, 30 min, quantitative mass spectrometry; for Fold higher total cell uptake than peptide 10 / Peptide concentration, total cell, 0.5 h: MDA-MB-231 cells; for Total drug content, Measured Conc: concentration in re-suspended cell lysate, dilution factor 10; for Peptide concentration, total cell, 0.5 h: unlabeled peptide 25 μM, 0.5 h incubation, RIPA total lysis, LLOQ given if not detected
# Protocol: as §9, §10, §11, §12, §13
# HeLa cells [3] = experiment: Cellular uptake of fluorescently labeled peptides by flow cytometry; format: cell-based, human; conditions: fluorescently labeled peptide, 5 μM, 90 min, flow cytometry fluorescence intensity, % of levels observed for R8
# Protocol: As the knock‐down of UNC119a was reported to increase the number of cytokinetic and binucleated cells,13 we investigated the influence of UNC119‐binding peptides on cell morphology. Initially, the uptake of fluorescently labeled peptide 4 by HeLa cells was investigated by using flow cytometry (c=5 μM for 90 min, Figure S4 and Table S2). These measurements show cellular uptake of 4 reaching about 50 % of the levels observed for cell‐penetrating peptide octa‐arginine (R8).30 Considering that this cellular uptake was sufficient, we tested the effect of unlabeled peptide 4 on cell morphology. As a reference, we used nocodazole (NC), which inhibits tubulin polymerization thereby inducing cell‐cycle arrest in the G2/M phase that results in cells with increased DNA content because chromosomal DNA has already been duplicated. HeLa and mouse fibroblast L cells were incubated with different peptide concentrations for 72 h prior to quantification of DNA content by using flow cytometry.
# Supporting Figure S4. Cellular uptake of fluorescently labeled peptides as determined by fluorescence
# intensities using flow cytometry in HeLa cells (90 min incubation at c(peptide) = 5 µM).
# (1 picture or pasted object on this page, not shown here)
# HeLa cells [4] = experiment: Fluorescence microscopy of cell morphology (tubulin antibody, DAPI); format: cell-based, human; conditions: 1 μM, 24 h, fixation, anti-tubulin antibody and DAPI staining
# Protocol: 2x10^4 Hela cells were seeded per well in a 24-well plate on cover slips and incubated overnight. Next day, cells were treated with different concentrations of the peptides or DMSO, nocodazole and cytochalasin D as controls and incubated at 37°C and 5% CO2 for the indicated times (72 h or 24 h). Cells were then fixed using 3.7% paraformaldehyde for 15 min at room temperature followed by permeabilization using 0.1% Triton X-100 in PBS for 15 min. Blocking was performed in 2% BSA in PBS containing 0.1% Tween 20 for 1 h at room temperature. Samples were incubated with the indicated primary antibodies (anti-tubulin primary antibody conjugated to FITC) in the blocking solution overnight at 4°C. After washing, cells were incubated with 1 µg/mL DAPI in blocking solution for 1 h at room temperature, followed by three washes with PBS.
# HeLa cells [5] = experiment: DNA content (4N) by propidium iodide staining and flow cytometry, HeLa cells; format: cell-based, human; conditions: control compound 1 µM (maximum tolerated concentration), 24 h, flow cytometry, triplicate, error 1 σ
# Protocol: (§14) 3 x10^4 L or Hela cells were seeded per well in 6–well plates and grown overnight. The following day, cells were treated with the indicated compound concentrations for 72 h or with nocodazole as a control for 24 h). Cells were washed, detached using trypsin and re-suspended in phosphate-buffered saline (PBS).
# (§15) Cells were centrifuged at 200xg for 5 min at room temperature (RT) and washed again. Cells were then fixed with 70% ethanol and stained with propidium iodide solution (12 µg/mL propidium iodide (Sigma, Germany), 0.1% (v/v) Triton X-100 and 100 µg/mL DNase-free RNase A (Sigma, Germany) in PBS) for 30 min at room temperature. Cell suspensions were filtered to FACS tubes through a nylon mesh before analysis.
# (§16) 10,000 cells for each sample were sorted by the BD LSRII analyzer (Becton Dickinson, USA). FlowJo 6.2.1 software was used for quantification and analysis of all data. For every analysis, FSC and SSC (forward and side scatter, respectively) gating was performed to exclude doublets and debris. In addition, cells were gated for singlets (PI-W vs. PI-A). […]
# mouse fibroblast L cells = experiment: DNA content (4N) by propidium iodide staining and flow cytometry, L cells; format: cell-based; conditions: control compound 1 µM (maximum tolerated concentration), 24 h, flow cytometry, triplicate, error 1 σ
# Protocol: as §14, §15, §16
# [6] = 25 µM compound, 0.5 h, concentration in lysate
# [7] = 25 µM compound, 72 h, concentration in lysate
smiles,measurement,setting,value
CCCCCCCCCCCCCC(=O)NCC(=O)N[C@@H](C)C(=O)NCC(=O)N[C@@H](C)C(=O)N[C@@H](CO)C(=O)N[C@@H](C)C(=O)N[C@@H](CCC(=O)O)C(=O)N[C@@H](CCC(=O)O)C(=O)N[C@@H](CCCCN)C(=O)N[C@@H](Cc1c[nH]cn1)C(=O)N[C@@H](CCCCN)C(N)=O [Peptide 1] (Myristoyl-GAGASAEEKHK-NH2),Kd,UNC119a,7.4 nM
same,Kd,UNC119b,11.2 nM
CCCCCCCCCCCCCC(=O)NCC(=O)N[C@@H](C)C(=O)NCC(=O)N[C@@H](C)C(=O)N[C@@H](CO)C(=O)N[C@@]1(C)CCCC=CCCC[C@@](C)(C(=O)N[C@@H](CCCCN)C(N)=O)NC(=O)[C@H](CCCCN)NC(=O)[C@H](CCC(=O)O)NC(=O)[C@H](CCC(=O)O)NC1=O [Peptide 4] (Myristoyl-GAGAS[S5]EEK[S5]K-NH2; staple 6-10),Kd,UNC119a,5.5 nM
same,Kd,UNC119b,63.2 ± 14 nM
same,"Peptide concentration, cytosol, 0.5 h",MDA-MB-231 cells [1],<0.001 pmol per 10^6 cells
same,"Peptide concentration, nucleus, 0.5 h",MDA-MB-231 cells [1],0.22 pmol per 10^6 cells
same,"Peptide concentration, cytosol, 72 h",MDA-MB-231 cells [1],0.01 pmol per 10^6 cells
same,"Peptide concentration, nucleus, 72 h",MDA-MB-231 cells [1],0.45 pmol per 10^6 cells
same,"Total drug content, pMols/million cells",MDA-MB-231 cells [2],59.9 pMols/million cells
same,Fold higher total cell uptake than peptide 10,MDA-MB-231 cells [2],more than 100 fold
same,"Total drug content, Measured Conc",MDA-MB-231 cells [2],155 nM
same,"Peptide concentration, total cell, 0.5 h",MDA-MB-231 cells [2],60 pmol per 10^6 cells
same,Cellular uptake relative to octa-arginine (R8),HeLa cells [3],about 50%
CC(=O)N[C@@H](CCCNC(=N)N)C(=O)N[C@@H](CCCNC(=N)N)C(=O)N[C@@H](CCCNC(=N)N)C(=O)N[C@@H](CCCNC(=N)N)C(=O)N[C@@H](CCCNC(=N)N)C(=O)N[C@@H](CCCNC(=N)N)C(=O)N[C@@H](CCCNC(=N)N)C(=O)N[C@@H](CCCNC(=N)N)C(N)=O [R8],"Sub-cellular drug content, pMols/million cells, Cytoplasm, 0.5 h","MDA-MB-231 cells [1]; 25 µM compound, 0.5 h",0.584 pMols/million cells
same,"Sub-cellular drug content, pMols/million cells, Nuclear, 0.5 h","MDA-MB-231 cells [1]; 25 µM compound, 0.5 h",0.563 pMols/million cells
same,"Sub-cellular drug content, Measured Conc, Cytoplasm, 0.5 h",MDA-MB-231 cells [1]; [6],3.59 nM
same,"Sub-cellular drug content, Measured Conc, Nuclear, 0.5 h",MDA-MB-231 cells [1]; [6],6.91 nM
same,"Sub-cellular drug content, pMols/million cells, Cytoplasm, 72 h","MDA-MB-231 cells [1]; 25 µM compound, 72 h",0.651 pMols/million cells
same,"Sub-cellular drug content, pMols/million cells, Nuclear, 72 h","MDA-MB-231 cells [1]; 25 µM compound, 72 h",0.638 pMols/million cells
same,"Sub-cellular drug content, Measured Conc, Cytoplasm, 72 h",MDA-MB-231 cells [1]; [7],2.92 nM
same,"Sub-cellular drug content, Measured Conc, Nuclear, 72 h",MDA-MB-231 cells [1]; [7],5.73 nM
same,"Peptide concentration, cytosol, 0.5 h",MDA-MB-231 cells [1],0.58 pmol per 10^6 cells
same,"Peptide concentration, nucleus, 0.5 h",MDA-MB-231 cells [1],0.56 pmol per 10^6 cells
same,"Peptide concentration, cytosol, 72 h",MDA-MB-231 cells [1],0.65 pmol per 10^6 cells
same,"Peptide concentration, nucleus, 72 h",MDA-MB-231 cells [1],0.64 pmol per 10^6 cells
same,"Total drug content, pMols/million cells",MDA-MB-231 cells [2],51.7 pMols/million cells
same,Fold higher total cell uptake than peptide 10,MDA-MB-231 cells [2],more than 100 fold
same,"Total drug content, Measured Conc",MDA-MB-231 cells [2],108 nM
same,"Peptide concentration, total cell, 0.5 h",MDA-MB-231 cells [2],52 pmol per 10^6 cells
COC(=O)Nc1nc2ccc(C(=O)c3cccs3)cc2[nH]1 [nocodazole],Effect on HeLa cell morphology,HeLa cells [4],deformation of the tubulin network
same,"DNA-content 4N, HeLa cells",HeLa cells [5],68.6 ±4.2%
same,"DNA-content 4N, HeLa cells",HeLa cells [5]; listed as NC,increased numbers of cells with doubled DNA content
same,"DNA-content 4N, L cells",mouse fibroblast L cells,75.4 ± 15.0%
same,"DNA-content 4N, L cells",mouse fibroblast L cells; listed as NC,increased numbers of cells with doubled DNA content
